# What was measured:
# [1] = system: MDA‐MB‐231 or SUM159 cells; experiment: Caspase‐3/7 activity assay and PARP cleavage; assay type: cell-based, human
# Method: […]. The samples were collected in lysis buffer (50 mM HEPES [pH: 7.4], 5 mM CHAPS, and 5 mM DTT), and caspase activity was measured by monitoring fluorescence (ex/em: 360/460 nm) using a SpectraMax i3x (Molecular Devices).
# [2] = system: MDA‐MB‐231 cells; experiment: Mitochondrial respiration analysis (Seahorse XF); assay type: cell-based, human; conditions: 24 h
# Method: Cellular oxygen consumption and extracellular acidification rates (OCR and ECAR, respectively) were measured using Seahorse XFe96 (Agilent). MDA‐MB‐231 cells were plated (15 000 cells/well) in Seahorse XF96 plates (Agilent, 102416‐100) and allowed to adhere overnight. Cells were then treated with 25 or 50 nM TR‐107 for 24 h. On the day of Seahorse XF analysis, the growth medium was replaced with an XF base medium (Agilent, 103575‐100) supplemented with appropriate concentrations of TR‐107. After measurement of basal OCR/ECAR, 1 μM Oligomycin, 1 μM FCCP, and 1 μM Rotenone/Antimycin A (Agilent, 103015‐100) were added at indicated time points. OCR/ECAR were measured every 6.5 min for 73 min.
# [3] = system: MDA‐MB‐231 xenografts; experiment: MDA‐MB‐231 mouse xenograft study; assay type: in vivo
# Method: Mitochondrial DNA copy number was determined as previously described.[23] Briefly, genomic DNA was isolated from tissue lysate with DNeasy Blood & Tissue kit (Qiagen, 69504). mtDNA copy number was determined by quantitative PCR with a human mitochondrial to nuclear DNA ratio kit (Takara Bio USA, 7246).
# Female athymic nude mice (Crl:NU[Ncr]‐Foxn1^ nu , Charles River) were 8 weeks old with body weight (BW) range of 19.0–27.0 g on Day 1 of the study. Animals were fed ad libitum water (reverse osmosis, 1 ppm Cl) and NIH 31 Modified and Irradiated Lab Diet® consisting of 18.0% crude protein, 5.0% crude fat, and 5.0% crude fiber. Mice were housed on irradiated Enrich‐o'cobs™ Laboratory Animal Bedding in static microisolators on a 14‐h light cycle at 20–22°C and 40%–60% humidity. Charles River Discovery Services North Carolina (CR Discovery Services) specifically complies with the recommendations of the Guide for Care and Use of Laboratory Animals with respect to restraint, husbandry, surgical procedures, feed and fluid regulation, and veterinary care. The animal care and use program at CR Discovery Services is accredited by the Association for Assessment and Accreditation of Laboratory Animal Care International.
# MDA‐MB‐231 human breast adenocarcinoma cells were grown to mid‐log phase in RPMI‐1640 supplemented with 10% FBS, 2 mM glutamine, 100 units/ml sodium penicillin G, 25 μg/ml gentamicin, 100 μg/ml streptomycin sulfate, 0.075% sodium bicarbonate, 10 mM HEPES, and 1 mM sodium pyruvate. Cells were cultures at 37°C and 5% CO2.
# MDA‐MB‐231 cells were harvested during exponential growth and resuspended in cold, sterile DPBS. Each animal received an orthotopic injection of 5 × 10^6 cells (0.05 ml volume) into the mammary fat pad. Tumor growth was monitored as the average tumor size approached the target range of 60–100 mm^3. Tumors were measured in two dimensions via caliper and volume was calculated using the following formula: Tumor Volume=w^2×l/2, where w is the width and l is the length (mm) of the tumor. Tumor weight was estimated based on the assumption that 1 mg = 1 mm^3. Fourteen days later (Day 1), animals were sorted into groups (n = 10 per group) with a mean tumor volume of 70–73 mm^3.
# Compounds were administered orally (p.o.) in a dosing volume of 10 ml/kg. Twice daily doses (B.I.D) were administered at least 6 h apart.
# Tumors were measured using calipers biweekly and animals were euthanized upon reaching tumor volume > 1500 mm^3 or on the final study day (Day 36), whichever came first. Time to endpoint (TTE) for analysis was calculated for animals that exited the study due to tumor volume using the following equation: TTE=log10endpoint volume−b/m, where TTE is expressed in days, endpoint volume is expressed in mm^3, b is the y‐intercept, and m is the slope of the line obtained by linear regression of a log‐transformed tumor growth data set. […] In instance where this equation yields a TTE day preceding the day prior to reaching the endpoint or exceeding the day of reaching the endpoint, a linear interpolation was performed to approximate TTE. Animals documented as having died of nontreatment‐related causes due to accident or unknown etiology were excluded from TTE calculations and all further analysis. Animals documented having died due to treatment‐related deaths or nontreatment‐related due to metastasis were assigned a TTE value equivalent to the day of death. Treatment outcome was evaluated from tumor growth delay (TGD) defined as the increase in the median TTE in the treatment group compared with the control group.
# On Day 36, all animals in all groups were sampled. Tumors were excised, divided into two parts, and weighed. Part 1 was preserved in a 5 ml fixative solution (4% formaldehyde, 2% glutaraldehyde in 0.1 M cacodylate buffer) and stored at 4°C. Part 2 was trimmed to be less than 0.5 cm in at least one dimension, submerged in five volumes of RNAlater solution, and stored at −20°C.
structure (smiles),measurement,setting,value
N#Cc1cccc(CN2CCc3ncn(Cc4ccc(Cl)cc4)c(=O)c3C2)c1 [TR‐107],caspase‐3/7 activity,"[1]; 24 h, 10 μM ONC201, 150 nM TR‐57, 100 nM TR‐107, 100 nM staurosporine",no increase
same,PARP cleavage,[1]; data not shown,no increase
same,decline in oxygen consumption rate (OCR),"[2]; ClpP‐KO MDA‐MB‐231, 25, 50 nM",not observed
same,extracellular acidification (ECAR),"[2]; MDA‐MB‐231, 25, 50 nM",dose‐dependent increase
same,oxygen consumption rate (OCR),"[2]; WT MDA‐MB‐231, 25, 50 nM",dose‐dependent decline
same,reduction in tumor volume,"[3]; 4 mg/kg (G2) and 8 mg/kg (G3) oral, day 26, vs vehicle",~ 50%
same,increase in median survival,"[3]; 4 mg/kg and 8 mg/kg oral, both groups, vs vehicle",~ 35%
same,mitochondrial DNA in tumor lysates,"[3]; 8 mg/kg (G3) vs control, end of study",substantial loss
same,PYCR2 and HMGCS1 protein levels in tumor lysates,[3]; 8 mg/kg vs vehicle,significantly reduced
same,TFAM in xenograft tumor lysates (immunoblot),[3]; 8 mg/kg vs vehicle,significant loss
same,weight loss,[3]; even at the highest dosing regimen,less than 5%
same,tolerability,[3]; oral 4 and 8 mg/kg,well tolerated
